# Source: patent US20260124184A1, “ONCE DAILY ALDOSTERONE SYNTHASE INHIBITOR (R)-(+)-5-(P-CYANOPHENYL)-5,6,7,8-TETRAHYDROIMIDAZO[L,5-A]PYRIDINE” (priority 2022, published 2026)
# Entries after “also recorded” stand apart in the source; their conditions may differ. Like-named read-outs stand apart in the source and are kept apart here.
# Tests used:
# [1] = tested on: patients with primary aldosteronism
# Protocol: (§1) A double-blind, randomized, Phase 2 trial was conducted between November 2019 and June 2022 at 11 centres in Italy, Switzerland and the Netherlands (NCT04007406). […] Patients requiring fixed-dose antihypertensive therapy continued treatment throughout the study; steroid therapies, β-adrenergic and renin-angiotensin-aldosterone system blockers were not permitted. At 14-day intervals, office blood pressures were recorded and blood samples were taken for measurement of steroid and peptide hormones and electrolytes at a central laboratory.
# Plasma aldosterone and plasma renin concentration were measured centrally under GCP regulations using the Liaison® chemiluminescent immunoassay kit supplied by DiaSorin S.p.A. Italy. The system used specific monoclonal antibodies to prevent cross reactions with other major potential reactants in the serum samples. The monoclonal antibodies directed against specific epitopes of the renin molecule allowed accurate and sensitive quantification. The assays were performed according to the instructions provided by the manufacturer. […] The analytical sensitivity was <0.97 ng/ml. […] The analytical sensitivity was <0.53 IU/mL.
# (§2) For all efficacy endpoints, changes from baseline were calculated from linear models and accompanied by 95% confidence intervals and p values. Log-transformed values were used for changes in ARR. The full analysis set (FAS) and safety set were defined as all randomized patients who received at least one dose of study drug.
# [2] = tested on: patients with primary aldosteronism; remark: listed apart in the source
# Protocol: as §1
# A centrally calibrated and validated device (Spacelab Healthcare) was used; the device was fitted at the hospital outpatient department by medically qualified staff on day −1 and day 55 prior to supervised drug intake by the patient. The light digital monitor with convenient carry pouches takes the blood pressure reading at regular intervals by inflating and subsequently deflating customized cuffs placed around the non-dominant upper arm for 24-hour recording of about 70 readings. Patients followed their regular routines yet refrained from exercising or taking a bath or shower. In addition, to assure proper measurements, the patient was asked to sit down prior to reading, keep the cuff at the same level as the heart and rest the arm steady. The patient was also asked to keep a diary on activities, meals and sleep to document what he/she was doing just before the reading was taken. At the end of the 24-hour period, the patient was able to remove the monitor and cuff, shower or bathe and return the device to the Investigator at the clinic. The machine stored all readings as source data that were uploaded in the eCRF.
# as §2
# [3] = 4 mg once daily, n=10, Day 1 (baseline)
# [4] = 4 mg once daily, n=10, Day 70 (after placebo withdrawal)
# [5] = 8 mg once daily, n=12, Day 1 (baseline)
# [6] = 8 mg once daily, n=12, Day 70 (after placebo withdrawal)
# [7] = 12 mg once daily, n=13, Day 1 (baseline)
# [8] = 12 mg once daily, n=13, Day 70 (so in the source)
substance,measurement,setting,value
"(R)-(+)-5-(p-cyanophenyl)-5,6,7,8-tetrahydroimidazolium[1,5-a]pyridine dihydrogen phosphate [dexfadrostat phosphate]","change in ARR from baseline to Day 56, mean","[1]; 4 mg once daily, n=10",−20.87 (ng/dL)/(mU/L)
same,"change in ARR from baseline to Day 56, median","[1]; 4 mg once daily, n=10",−14.98 (ng/dL)/(mU/L)
same,"ARR, mean",[1]; [3],24.56 (ng/dL)/(mU/L)
same,"ARR, median",[1]; [3],21.37 (ng/dL)/(mU/L)
same,"ARR, mean","[1]; 4 mg once daily, n=10, Day 14",4.57 (ng/dL)/(mU/L)
same,"ARR, median","[1]; 4 mg once daily, n=10, Day 14",3.76 (ng/dL)/(mU/L)
same,"ARR, mean","[1]; 4 mg once daily, n=10, Day 28",2.57 (ng/dL)/(mU/L)
same,"ARR, median","[1]; 4 mg once daily, n=10, Day 28",1.76 (ng/dL)/(mU/L)
same,"ARR, mean","[1]; 4 mg once daily, n=10, Day 42",2.87 (ng/dL)/(mU/L)
same,"ARR, median","[1]; 4 mg once daily, n=10, Day 42",2.07 (ng/dL)/(mU/L)
same,"ARR, mean","[1]; 4 mg once daily, n=10, Day 56",3.70 (ng/dL)/(mU/L)
same,"ARR, median","[1]; 4 mg once daily, n=10, Day 56",2.52 (ng/dL)/(mU/L)
same,"ARR, mean",[1]; [4],12.34 (ng/dL)/(mU/L)
same,"ARR, median",[1]; [4],11.47 (ng/dL)/(mU/L)
same,"change in ARR from baseline to Day 56, mean","[1]; 8 mg once daily, n=12",−10.61 (ng/dL)/(mU/L)
same,"change in ARR from baseline to Day 56, median","[1]; 8 mg once daily, n=12",−6.99 (ng/dL)/(mU/L)
same,"ARR, mean",[1]; [5],11.58 (ng/dL)/(mU/L)
same,"ARR, median",[1]; [5],7.18 (ng/dL)/(mU/L)
same,"ARR, mean","[1]; 8 mg once daily, n=12, Day 14",0.8 (ng/dL)/(mU/L)
same,"ARR, median","[1]; 8 mg once daily, n=12, Day 14",0.31 (ng/dL)/(mU/L)
same,"ARR, mean","[1]; 8 mg once daily, n=12, Day 28",1.26 (ng/dL)/(mU/L)
same,"ARR, median","[1]; 8 mg once daily, n=12, Day 28",0.4 (ng/dL)/(mU/L)
same,"ARR, mean","[1]; 8 mg once daily, n=12, Day 42",0.74 (ng/dL)/(mU/L)
same,"ARR, median","[1]; 8 mg once daily, n=12, Day 42",0.29 (ng/dL)/(mU/L)
same,"ARR, mean","[1]; 8 mg once daily, n=12, Day 56",0.96 (ng/dL)/(mU/L)
same,"ARR, median","[1]; 8 mg once daily, n=12, Day 56",0.27 (ng/dL)/(mU/L)
same,"ARR, mean",[1]; [6],4.19 (ng/dL)/(mU/L)
same,"ARR, median",[1]; [6],2.46 (ng/dL)/(mU/L)
same,"change in ARR from baseline to Day 56, mean","[1]; 12 mg once daily, n=13",−15.61 (ng/dL)/(mU/L)
same,"change in ARR from baseline to Day 56, median","[1]; 12 mg once daily, n=13",−13.97 (ng/dL)/(mU/L)
same,"ARR, mean",[1]; [7],17.75 (ng/dL)/(mU/L)
same,"ARR, median",[1]; [7],17.8 (ng/dL)/(mU/L)
same,"ARR, mean",[1]; [8],9.3 (ng/dL)/(mU/L)
same,"ARR, median",[1]; [8],13.72 (ng/dL)/(mU/L)
same,ARR upon drug withdrawal,"[1]; Day 70, after 14-day placebo withdrawal",ARR values returned towards baseline values
same,"change in ARR from baseline to Day 56, mean","[1]; all doses combined, n=35",−15.40 (ng/dL)/(mU/L)
same,"change in ARR from baseline to Day 56, median","[1]; all doses combined, n=35",−11.76 (ng/dL)/(mU/L)
same,LSM change in lognormal values of ARR from baseline,"[1]; all patients, Day 1 to Day 56, FIG. 2A, p<0.0001",−2.54 (95% CI −2.9 to −2.2)
same,effect on ARR from baseline to day 56,"[1]; all three doses (4 mg, 8 mg, 12 mg)",significant reductions (p<0.0001) in ARR from baseline to day 56
same,effect on ARR over time,"[1]; all three doses, baseline to day 14, 28, 42 and 56",rapid and significant (p<0.0001) reductions in ARR; also recorded: rapid and significant reductions (p<0.0001) in ARR
same,"change in 24-h aSBP from baseline to Day 56, mean","[2]; 4 mg once daily, n=10",−8.10 mmHg
same,"change in 24-h aSBP from baseline to Day 56, median","[2]; 4 mg once daily, n=10",−8.17 mmHg
same,"24-h aSBP, mean",[2]; [3],136.84 mmHg
same,"24-h aSBP, median",[2]; [3],138.38 mmHg
same,"24-h aSBP, mean","[2]; 4 mg once daily, n=10, Day 56",128.74 mmHg
same,"24-h aSBP, median","[2]; 4 mg once daily, n=10, Day 56",129.43 mmHg
same,"change in 24-h aSBP from baseline to Day 56, mean","[2]; 8 mg once daily, n=12",−13.95 mmHg
same,"change in 24-h aSBP from baseline to Day 56, median","[2]; 8 mg once daily, n=12",−13.33 mmHg
same,"24-h aSBP, mean",[2]; [5],144.88 mmHg
same,"24-h aSBP, median",[2]; [5],144.76 mmHg
same,"24-h aSBP, mean","[2]; 8 mg once daily, n=12, Day 56",130.93 mmHg
same,"24-h aSBP, median","[2]; 8 mg once daily, n=12, Day 56",129.43 mmHg
same,"change in 24-h aSBP from baseline to Day 56, mean","[2]; 12 mg once daily, n=13",−9.81 mmHg
same,"change in 24-h aSBP from baseline to Day 56, median","[2]; 12 mg once daily, n=13",−12.43 mmHg
same,"24-h aSBP, mean",[2]; [7],144.96 mmHg
same,"24-h aSBP, median",[2]; [7],146.87 mmHg
same,"24-h aSBP, mean","[2]; 12 mg once daily, n=13, Day 56",135.15 mmHg
same,"24-h aSBP, median","[2]; 12 mg once daily, n=13, Day 56",130.82 mmHg
same,decrease in mean 24-h aSBP from baseline to day 56,"[2]; all dose groups combined, p<0.0001",10.7 mmHg
same,"change in aSBP from baseline to Day 56, mean","[2]; all doses combined, n=35",−10.74 mmHg
